Assay results from patent US5608104A, “Immunological detection method of pyrethroid compound, haptenic compound, intermediate for the haptenic compound, immunogen and antibody” (Mitsui Toatsu Chemicals, Inc., priority 1993, dated 1997).

Legend:
[1] = tested on: anti-etofenprox antibody I (E-antibody I); assay: Indirect competitive ELISA employing E-antibody I; type: binding, rabbit; conditions: inhibition rate relative to etofenprox at its IC50 concentration (=100%); antibody 1/40,000, 50% methanol
Description: 1. To a 96-well polystyrene microtiter plate, a solution of the conjugate between rabbit serum albumin (RSA) and the haptenic compound (I) dissolved in a coating buffer solution [10 mM phosphate buffer solution (pH 7.5), 100 mM NaC1] to give […] was added as an antigen at a ratio of 0.1 ml/well, followed by incubation at 4° C. overnight, whereby the antigen was adsorbed on the plate. After the excess solution was drained, a 3% solution of skim milk was added to the wells at a ratio of 0.3 ml/well, followed by incubation at 25° C. for one hour. The plate was washed thrice with a washing buffer [10 mM phosphate buffer solution (pH 7.2), 0.8% NaC1, 0.02% KCl, 0.02% "Tween 20"], whereby an antigen-coated plate was obtained.
2. The E-antibody I was diluted 20,000-fold with a diluting buffer [10 mM phosphate buffer solution (pH 7.5), 0.8% NaCl, 0.02% KCl] and was then mixed with a solution of etofenprox in methanol at a ratio of 1:1 to give an antibody concentration and a methanol concentration, both in the resulting solution, of 1/40,000 and 50%, respectively. The solution was reacted by incubation at 25° C. for one hour. The reaction mixture was added to the antigen-coated plate at a rate of 0.1 ml/well, followed by the reaction at 25° C. for one hour. The plate was then washed thrice with the washing buffer.
3. A conjugate between horseradish peroxidase and anti-rabbit IgG goat IgG (a second antibody) was diluted 10,000-fold with the washing buffer. The diluted conjugate was added to the antigen-coated plate at a rate of 0.1 ml/well, followed by incubation at 25° C. for one hour. The plate was washed thrice with the washing buffer.
4. To the antigen-coated plate, a chromogenic solution of o-phenylenediamine [0.2% (v/v) o-phenylenediamine and 100 mM phosphate-citrate buffer solution [pH 5.0, 0.003% (v/v) hydrogen peroxide] was added in an amount of 0.2 ml/well, followed by incubation at 25° C. for 10 minutes. The enzymatic reaction was then terminated by adding 4N sulfuric acid to the plate by at a rate of 0.05 ml/well. The absorbances at 492 nm and 630 nm were thereafter measured, respectively. According to this method, etofenprox concentrations ranging from 10 ng/ml to 10,000 ng/ml were successfully measured.
A solution of each of various pyrethroid compounds in methanol (having a concentration of 2-20,000 ng/ml) was mixed with a solution of the E antibody I, which had been diluted 20,000-fold with a diluting buffer, at a ratio of 1:1, followed by incubation at 25° C. for one hour.
Using the reaction mixture, measurement was conducted by the ELISA method as described in Example 8. The absorbance of the reaction mixture which had been obtained without addition of any pyrethroid compound is designated as 100%. The concentration of etophenprox. which inhibited 50% of the absorbance is designated as IC50 concentration. The inhibition rates of other pyrethroid compounds when the inhibition rate of ethophenprox at IC50 concentration is designated as 100% are shown as cross reactivity in Table 1.

[2] = tested on: anti-etofenprox antibody II (E-antibody II); assay: Indirect competitive ELISA employing E-antibody II; type: binding, rabbit; conditions: inhibition rate relative to etofenprox at its IC50 concentration (=100%); antibody 1/80,000, 20% methanol
Description: The ELISA method employing E-antibody II, on the other hand, will be described next. As the antigen, a 0.01 μg/ml solution of the conjugate between the haptenic compound (II) and RSA was employed. An E-antibody II solution, which had been diluted 64,000-fold, and a methanol solution of etofenprox were mixed at a ratio of 4:1 to give an antibody concentration and methanol concentration, each in the resulting solution, of 1/80,000 and 20%, respectively. The resulting solution was then reacted. As a second antibody, antirabbit IgG goat IgG in the form of a 5000-fold dilution was employed. In a similar manner to the above ELISA method, etofenprox concentrations ranging from 3 ng/ml to 1,000 ng/ml were successfully measured.
In addition, solutions of each of various pyrethroid compounds in methanol (concentration: 5-50,000 ng/ml) were each mixed with an E antibody II solution, which had been diluted 64,000-fold, at a ratio of 1:4, followed by incubation at 25° C. for one hour. The reaction mixture was treated as described in Example 8 and its cross reactivity was obtained.
The inhibition rates of other pyrethroid compounds when the inhibition rate of ethophenprox at IC50 concentration is designated as 100% are also shown as cross reactivity in Table 1.

Compound	Cross reactivity (%) E antibody I [1]	Cross reactivity (%) E antibody II [2]
CC1(C)[C@H](C(=O)OCc2coc(Cc3ccccc3)c2)[C@@H]1/C=C1\CCSC1=O [Kadethrin, kadethrin]	62%	164%
CCOc1ccc(C(C)(C)CCCc2cccc(Oc3ccccc3)c2)cc1 [MTI-790, 1-(3-phenoxyphenyl)-4-(4-ethoxyphenyl)-4-methylpentane]	23%	37%
CC(C)=CC1C(C(=O)OCc2coc(Cc3ccccc3)c2)C1(C)C (stereo not shown) [Resmethrin, resmethrin]	74%	85%
CCOc1ccc(C2(C(=O)OC(C#N)c3cccc(Oc4ccccc4)c3)CC2(Cl)Cl)cc1 (stereo not shown) [Cycloprothrin, cycloprothrin]	103%	54%
Cc1c(COC(=O)C2C(C=C(Cl)C(F)(F)F)C2(C)C)cccc1-c1ccccc1 (stereo not shown) [Biphenthrin, biphenthrin]	86%	81%
CC1(C)[C@H](C(=O)O[C@H](C#N)c2cccc(Oc3ccccc3)c2)[C@@H]1C(Br)C(Br)(Br)Br (stereo partly shown) [Tralomethrin, tralomethrin]	116%	67%
CC(C)(COCc1cccc(Oc2ccccc2)c1)c1ccc(OC(F)(F)Br)cc1 [Halfenprox, halfenprox]	85%	75%
CCOc1ccc(C(C)(C)CCCc2ccc(F)c(Oc3ccccc3)c2)cc1 [MTI-800, 1-(3-phenoxy-4-fluorophenyl)-4-(4-ethoxyphenyl)-4-methylpentane]	54%	34%
CC1(C)C(C(=O)OC(C#N)c2cccc(Oc3ccccc3)c2)C1(C)C (stereo not shown) [Fenpropathrin, fenpropathrin]	136%	48%
CCOc1ccc(C(COCc2cccc(Oc3ccc(Cl)cc3)c2)C(F)(F)F)cc1 (stereo not shown) [Flufenprox]	108%	74%
CC(C)C(C(=O)OC(C#N)c1cccc(Oc2ccccc2)c1)c1ccc(Cl)cc1 (stereo not shown) [Fenvarerate, fenvarerate]	47%	50%
CCOc1ccc([Si](C)(C)OCc2cccc(Oc3ccccc3)c2)cc1 [SSI-116, dimethyl-(4-ethoxyphenyl)-(3-phenoxybenzyloxy)silane]	70%	103%
CC(C)[C@H](C(=O)OC(C#N)c1cccc(Oc2ccccc2)c1)c1ccc(OC(F)F)cc1 (stereo partly shown) [Flucythrinate, flucythrinate]	126%	60%
CC1(C)C(/C=C(\Cl)C(F)(F)F)C1C(=O)OC(C#N)c1cccc(Oc2ccccc2)c1 (stereo not shown) [Cyhalothrin, cyhalothrin]	92%	36%
CCOc1ccc([Si](C)(C)CCCc2ccc(F)c(Oc3ccccc3)c2)cc1 [Silafluofen, silafluofen]	57%	32%
C=CCC1=C(C)C(OC(=O)C2C(C=C(C)C)C2(C)C)CC1=O (stereo not shown) [Allethrin, allethrin]	46%	54%
CC(C)[C@H](Nc1ccc(C(F)(F)F)cc1Cl)C(=O)OC(C#N)c1cccc(Oc2ccccc2)c1 (stereo partly shown) [Fluvalinate, fluvalinate]	70%	23%
